One assay relates to SF-268. Description: XTT proliferation assay, SF-268. Format: cell-based. The following applies: Homo sapiens, read-out: XTT Proliferationsassay, EC50 SF-268. From the text:
(§1) Die Substanzen 1,2, 4-6 wurden in einem Proliferationstest an etablierten Tumorzelllinien auf ihre anti-proliferative Aktivität hin untersucht (D.A. Scuderio et al. Cancer Res. 1988, 48, 4827-4833). Der verwendete Test bestimmt die zelluläre Dehydrogenase-Aktivität und ermöglicht eine Bestimmung der Zellvitalität und indirekt der Zellzahl. Bei den verwendeten Zelllinien handelt es sich um die humane Cervixkarzinom Zelllinie KB/HeLa (ATCC CCL17), die ovariale Adenokarzinomzelllinie SKOV-3 (ATCC HTB77), die humane Glioblastom Zelllinie SF-268 (NCI 503138) und die Lungenkarzinom Zelllinie NCI-H460 (NCI 503473). Des weiteren wurde zur Untersuchung der Zellzyklus-spezifischen Wirkung der Substanz ein RKOp27 Zellsystem verwendet (M. Schmidt et al. Oncogene19(20):2423-9, 2000). Bei RKO handelt es sich um eine humane Kolonkarzinomlinie, in der der Zellzyklusinhibitor p27 ^kip1 mittels des Ecdyson Expressionssystems induziert zur Expression gebracht und zu einem Zellzyklusarrest spezifisch in G2 geführt werden kann. Eine unspezifisch wirkende Substanz hemmt die Proliferation unabhängig davon, ob die RKO Zelle in G1 oder G2 arretiert ist oder nicht. Zellzyklus-spezifische Substanzen wie beispielsweise Tubulininhibitoren sind hingegen nur dann zytotoxisch, wenn Zellen nicht arretiert sind und der Zellzyklus durchlaufen wird. In Tabelle 1 ist die zytotoxische bzw. wachstumshemmende Aktivität der beschriebenen Verbindungen mit / ohne Expression von p27^kip1gezeigt. Die getesteten Verbindungen zeigten im induzierten Zustand von p27^kiP1 keine zytotoxische Aktivität. Die Ergebnisse zeigen eine sehr potente Hemmung der Proliferation ausgewählter Tumorzelllinien durch die genannten Substanzen.
(Tetrazolium dyes change colour on reduction, which living cells bring about.)

The next assay has as its system A431. Put plainly: XTT proliferation assay, A431. Format: cell-based, human. The conditions noted are these: Homo sapiens, read-out: XTT Proliferationsassay, EC50 A431.
Text: as §1, with “Substanzen. Tabelle 1:” for “Substanzen.”
(§2) Zur weiteren Charakterisierung wurden die Substanzen 1-6 an einem Panel von 7 humanen Tumorzelllinien auf ihre anti-proliferative Wirkung hin untersucht. Bei den untersuchten Zelllinien handelt es sich um die humanen Glioma Zelllinien A172 (ATCC CRL-1620) und U118 (ATCC HTB-15), die humane Lungenkarzinom Zelllinie A549, das humane epidermoide Karzinom A431 (ATCC CRL-2592), die humanen Prostatakarzinom Zelllinien DU145 (ATCC HTB-81) und PC3 (ATCC CRL-1435) und die humane Kolon Adenokarzinomzelllinie HT29 (ATCC HTB-38). Es handelt sich hierbei um sehr gut charakterisierte, etablierte Zelllinien, die von ATCC, ECACC bzw. NCI erhalten und in Kultur genommen wurden. Die in Tab. […]

A further assay deals with A172. Put plainly: XTT proliferation assay, A172. The assay is classed as cell-based, human. The following applies: Homo sapiens, read-out: XTT Proliferationsassay, EC50 A172.
Text: as §1, with “Substanzen. Tabelle 1:” for “Substanzen.”
as §2

For another assay, the system named is LT12. Put plainly: XTT proliferation assay, LT12 (wild type). The assay is classed as cell-based.
Text: as §1, with “Substanzen. Tabelle 1:” for “Substanzen.”
(§3) Zur weiteren Charakterisierung wurden die Substanzen 1,2,4-6 gegenüber multi drug resistenten Zelllinien im Vergleich zu den nicht-resistenten Wildtypzelllinien untersucht.
(§4) Bei den untersuchten Zelllinien handelt es sich um die murine L1210, die akute myeloische Leukaemie Zelllinie LT12 und um die resistenten Linien L1210/mdr und LT12/mdr. Außerdem wurden die murine P388 Zelllinie (methyl-cholanthreneinduced lymphoid neoplasm) sowie die Doxorubicin-resistente P388 als Testsysteme herangezogen.

The test system of a further assay is L1210. Description: XTT proliferation assay, L1210 (wild type). The assay is classed as cell-based, murine.
Text: as §1, with “Substanzen. Tabelle 1:” for “Substanzen.”
as §3, §4

Another assay deals with L1210VCR. Put plainly: XTT proliferation assay, L1210VCR (resistant). The assay is classed as cell-based, murine.
Text: as §1, with “Substanzen. Tabelle 1:” for “Substanzen.”
as §3, §4

For another assay, the system named is P388. Put plainly: XTT proliferation assay, P388 (wild type). The assay is classed as cell-based, murine.
Text: as §1, with “Substanzen. Tabelle 1:” for “Substanzen.”
as §3, §4

The subject of another assay is Rindertubulin. Description: Inhibition of tubulin polymerisation in vitro. Format: biochemical, Rind. The following applies: Tubulin with 30% MAPs; mean of two independent experiments. From the text:
In diesem Test wird durch Zyklen von Polymerisation und Depolymerisation aufgereinigtes Tubulin eingesetzt, welches durch Zugabe von GTP und Erwärmung zur Polymerisation gebracht wird. […]

Another assay concerns the target Topoisomerase II (Homo sapiens, UniProt P11388). Description: pRYG relaxation assay for topoisomerase II activity. The assay is classed as biochemical. The conditions noted are these: tested at 100, 31.6 and 10 µM. The protocol:
Mit diesem Relaxationsassay konnte zusätzlich die inhibitorische Eigenschaft der erfindungsgemäßen Verbindungen auf Topoisomerase II gezeigt werden. Die Testung der erfindungsgemäßen Verbindungen 2 und 4 erfolgte hierbei bei drei unterschiedlichen Konzentrationen (100, 31.6 und 10 µM). Zum Vergleich setzte man die Referenzverbindung m-Amsacrin bei einer Konzentration von 100µM ein.
Zu 1µL vorgelegter Testsubstanz (20fach konzentriert in 100% DMSO) werden 2µL 10x Assay Puffer, 0,5µL pRYG DNA (125ng), 0,5µL human Topoisomerase II (1 unit) und 16µL H2O pipettiert und gemischt. Die Reaktionsansätze werden in den auf 37°C vorgeheizten Heizblock gestellt und 30min bei 37°C inkubiert. Die Inkubation wird nach Zugabe von 4µL 5x Stop Puffer abgestoppt. Danach werden 10µL des Ansatzes auf ein 1,2% Agarosegel mit 0,25µg/mL Ethidiumbromid aufgetragen und 2,5h bei 100V aufgetrennt. Zum Schluß wird das Gel unter UV Anregung fotografiert (s. Graph 3). Die Quantifizierung der Inhibierung der pRYG Relaxation erfolgt mit der GeIPro® Analyzer Software (s. Graph 4). [formula] [formula]

Values after ≈ are worked out from the molar mass of the structure shown. Read-outs that look alike come from different tables or passages of the source.

Sequence of Topoisomerase II (P11388 whole entry): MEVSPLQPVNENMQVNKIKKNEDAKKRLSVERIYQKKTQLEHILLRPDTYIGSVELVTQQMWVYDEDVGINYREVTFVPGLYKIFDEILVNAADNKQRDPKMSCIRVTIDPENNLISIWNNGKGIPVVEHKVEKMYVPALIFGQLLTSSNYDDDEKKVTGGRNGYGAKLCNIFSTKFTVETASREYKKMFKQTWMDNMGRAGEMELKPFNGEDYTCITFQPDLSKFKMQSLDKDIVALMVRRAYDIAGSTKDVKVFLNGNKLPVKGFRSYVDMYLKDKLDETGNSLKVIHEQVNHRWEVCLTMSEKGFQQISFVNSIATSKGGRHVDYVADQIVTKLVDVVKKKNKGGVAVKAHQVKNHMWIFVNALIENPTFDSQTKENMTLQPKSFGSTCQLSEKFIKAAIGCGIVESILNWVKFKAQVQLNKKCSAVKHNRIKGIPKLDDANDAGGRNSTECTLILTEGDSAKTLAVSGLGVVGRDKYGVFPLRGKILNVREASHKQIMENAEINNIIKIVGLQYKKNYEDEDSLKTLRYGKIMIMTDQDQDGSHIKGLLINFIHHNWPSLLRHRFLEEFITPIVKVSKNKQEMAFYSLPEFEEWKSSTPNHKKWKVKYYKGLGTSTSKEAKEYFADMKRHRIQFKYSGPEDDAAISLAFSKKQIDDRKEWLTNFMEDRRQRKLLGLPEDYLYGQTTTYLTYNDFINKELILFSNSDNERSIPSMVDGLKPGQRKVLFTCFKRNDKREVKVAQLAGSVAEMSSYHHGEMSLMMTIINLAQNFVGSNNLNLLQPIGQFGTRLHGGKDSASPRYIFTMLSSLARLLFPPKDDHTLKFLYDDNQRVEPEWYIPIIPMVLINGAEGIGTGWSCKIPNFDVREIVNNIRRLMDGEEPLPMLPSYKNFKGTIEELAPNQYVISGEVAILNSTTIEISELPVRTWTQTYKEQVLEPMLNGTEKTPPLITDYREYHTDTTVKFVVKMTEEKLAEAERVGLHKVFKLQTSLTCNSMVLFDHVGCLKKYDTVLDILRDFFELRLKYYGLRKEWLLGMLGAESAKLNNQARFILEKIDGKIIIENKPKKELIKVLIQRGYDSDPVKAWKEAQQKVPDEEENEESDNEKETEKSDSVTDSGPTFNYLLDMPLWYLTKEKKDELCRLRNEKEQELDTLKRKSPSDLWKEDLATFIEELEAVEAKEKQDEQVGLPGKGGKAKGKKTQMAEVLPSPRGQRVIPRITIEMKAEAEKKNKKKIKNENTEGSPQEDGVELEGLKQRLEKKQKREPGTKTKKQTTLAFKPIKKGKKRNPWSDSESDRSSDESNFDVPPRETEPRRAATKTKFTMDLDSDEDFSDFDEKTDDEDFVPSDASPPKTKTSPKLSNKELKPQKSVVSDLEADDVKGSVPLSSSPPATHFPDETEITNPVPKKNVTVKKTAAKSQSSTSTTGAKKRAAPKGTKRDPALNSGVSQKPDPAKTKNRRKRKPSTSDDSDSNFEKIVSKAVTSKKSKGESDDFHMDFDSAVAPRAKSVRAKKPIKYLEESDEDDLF

As for `O=C(Nc1ccc2ncccc2c1)C(=O)c1cn(Cc2ccc(Cl)cc2)c2ccccc12` [Verbindung 2, 2-[1-(4-Chlor-benzyl)-1 H-indol-3-yl]-2-oxo-N-chinolin-6-yl-acetamid], the EC50 with SF-268 was found to be 0.027 µg/mL (≈ 0.0614 µM); in the assay on A431 (A-431), 0.014 µg/mL (≈ 0.0318 µM); in the assay with A172 (A 172) it was 0.024 µg/mL (≈ 0.0546 µM); in the assay on LT12 (Rattus norvegicus, LT12, read-out: XTT Proliferationsassay, EC50 LT12), 0.044 µg/mL (≈ 0.1 µM); in the assay with L1210 (Mus musculus, L1210, read-out: XTT Proliferationsassay, EC50 L1210) it was 0.074 µg/mL (≈ 0.168 µM); in the assay on L1210VCR (Mus musculus, read-out: XTT Proliferationsassay, EC50 L1210VCR), 0.078 µg/mL (≈ 0.177 µM). The EC50 in the assay with P388 (Mus musculus, P388, read-out: XTT Proliferationsassay, EC50 P388) amounted to 0.037 µg/mL (≈ 0.0841 µM). Moreover, the “Hemmung der Tubulin-Polymerisation, EC50” value in the assay on Rindertubulin stood at 1.23 µg/mL. Also, the “Hemmung der Topoisomerase II (pRYG Relaxationsassay)” value on Topoisomerase II is “signifikante Hemmung der Topoisomerase II”.

In the case of `O=C(Nc1ccc2ncccc2c1)C(=S)c1cn(Cc2ccc(Cl)cc2)c2ccccc12` [Verbindung 4, 2-[1-(4-Chlorbenzyl)-1 H-indol-3-yl]-N-chinolin-6-yl-2-thioxoacetamid], the EC50 in the assay with A431 (A-431, A431) worked out at 0.016 µg/mL (≈ 0.0351 µM); in the assay with A172 (A 172, A172) it was 0.043 µg/mL (≈ 0.0943 µM). In the assay on Rindertubulin, the “Hemmung der Tubulin-Polymerisation, EC50” value came to 0.97 µg/mL. Also, the “Hemmung der Topoisomerase II (pRYG Relaxationsassay)” value on Topoisomerase II is “signifikante Hemmung der Topoisomerase II”.

For `O=C(Nc1cnc2nccnc2c1)C(=O)c1cn(Cc2ccc(Cl)cc2)c2ccccc12` [Verbindung 5, 2-[1-(4-Chlor-benzyl)-1H-indol-3-yl]-2-oxo-N-pyrido[2,3-b]pyrazin-7-yl-acetamid], the EC50 in the assay with SF-268 came to 0.042 µg/mL (≈ 0.095 µM); in the assay on A431 (A-431, A431) it was 0.011 µg/mL (≈ 0.0249 µM); in the assay on A172 (A 172, A172), 0.019 µg/mL (≈ 0.043 µM); in the assay with LT12 (Rattus norvegicus, LT12; read-out: XTT Proliferationsassay, EC50 LT12), 0.015 µg/mL (≈ 0.0339 µM); in the assay on L1210 (Mus musculus, L1210; read-out: XTT Proliferationsassay, EC50 L1210), 0.018 µg/mL (≈ 0.0407 µM); in the assay on L1210VCR (Mus musculus; read-out: XTT Proliferationsassay, EC50 L1210VCR), 0.021 µg/mL (≈ 0.0475 µM). Also, the EC50 with P388 (Mus musculus, P388; read-out: XTT Proliferationsassay, EC50 P388) amounted to 0.012 µg/mL (≈ 0.0272 µM). The “Hemmung der Tubulin-Polymerisation, EC50” value with Rindertubulin was 0.71 µg/mL.

Values taken from EP1484329A1, “Indole derivatives with apoptosis inducing activity” (Zentaris GmbH, priority 2003, dated 2004).
